What was measured:
Assay in all cases: Kinase profiling in a biochemical assay panel (mobility shift assays and ELISA), %-inhibition at 1 μM; selectivity entropy
[1] = biological target: panel of more than 300 wild-type and mutant kinases (313 kinase panel) (Homo sapiens, UniProt Q9UM73, R1275Q)
[2] = biological target: panel of more than 300 wild-type and mutant kinases (313 kinase panel) (Homo sapiens, UniProt P00533, T790M); settings: kinase EGFR(T790M); compound at 1 μM
[3] = biological target: panel of more than 300 wild-type and mutant kinases (313 kinase panel) (Homo sapiens, UniProt P00533, L858R/T790M)
[4] = biological target: panel of more than 300 wild-type and mutant kinases (313 kinase panel) (Homo sapiens, UniProt P11362, V561M); settings: kinase FGFR1(V561M); compound at 1 μM
[5] = biological target: panel of more than 300 wild-type and mutant kinases (313 kinase panel) (Homo sapiens, UniProt P00533, L861Q); settings: kinase EGFR(L861Q); compound at 1 μM
[6] = biological target: panel of more than 300 wild-type and mutant kinases (313 kinase panel) (Homo sapiens, UniProt P00533)
[7] = biological target: panel of more than 300 wild-type and mutant kinases (313 kinase panel) (Homo sapiens, UniProt P00533, L858R)
[8] = biological target: panel of more than 300 wild-type and mutant kinases (313 kinase panel) (Homo sapiens, UniProt P00519)
[9] = biological target: panel of more than 300 wild-type and mutant kinases (313 kinase panel) (Homo sapiens, UniProt P00519, E255K)
[10] = biological target: T1, panel of more than 300 wild-type and mutant kinases (313 kinase panel) (Homo sapiens, UniProt P42679)
T1 sequence (P42679 1-507): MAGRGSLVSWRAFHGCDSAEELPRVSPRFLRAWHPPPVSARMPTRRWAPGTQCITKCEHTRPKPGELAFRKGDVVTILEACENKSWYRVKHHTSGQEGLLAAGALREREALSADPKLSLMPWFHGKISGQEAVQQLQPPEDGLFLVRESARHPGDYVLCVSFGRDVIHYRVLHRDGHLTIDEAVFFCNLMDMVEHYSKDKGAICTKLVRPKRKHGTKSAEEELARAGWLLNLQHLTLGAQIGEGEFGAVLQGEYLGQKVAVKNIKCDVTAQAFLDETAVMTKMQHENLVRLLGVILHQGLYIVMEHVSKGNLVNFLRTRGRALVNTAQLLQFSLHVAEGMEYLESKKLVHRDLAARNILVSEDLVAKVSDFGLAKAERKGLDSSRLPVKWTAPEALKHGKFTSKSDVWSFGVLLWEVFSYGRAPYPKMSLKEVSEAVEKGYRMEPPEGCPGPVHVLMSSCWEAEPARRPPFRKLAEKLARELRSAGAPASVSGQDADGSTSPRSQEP

[11] = biological target: panel of more than 300 wild-type and mutant kinases (313 kinase panel) (Homo sapiens, UniProt P35968)
[12] = kinase ALK(R1275Q), 1 μM compound
[13] = kinase EGFR(T790M/L858R), compound at 1 μM
[14] = kinase EGFR(L858R), compound at 1 μM
[15] = kinase ABL(E255K), 1 μM compound

Compound	%-inhibition, ALK(R1275Q) [1, 12]	%-inhibition of EGFR(T790M) [2]	%-inhibition of EGFR(T790M/L858R) [3, 13]	%-inhibition of FGFR1(V561M) [4]	%-inhibition of EGFR(L861Q) [5]	%-inhibition of EGFR ([6]; kinase EGFR, compound at 1 μM)	%-inhibition of EGFR(L858R) [7, 14]	%-inhibition of KDR ([11]; kinase KDR, compound at 1 μM)	further results
COc1cc(Nc2c(C#N)cnc3cc(OCCCN4CCN(C)CC4)c(OC)cc23)c(Cl)cc1Cl [bosutinib]	61%	87%	–	–	–	–	–	–	–
COc1cc2nccc(Oc3ccc(NC(=O)C4(C(=O)Nc5ccc(F)cc5)CC4)cc3)c2cc1OC [cabozantinib]	79%	32%	29%	-2.45%	46%	54%	30%	–	%-inhibition, ABL ([8]; kinase ABL, 1 μM compound): 56%; %-inhibition, ABL(E255K) [9, 15]: 25%
C[C@@H](Oc1cc(-c2cnn(C3CCNCC3)c2)cnc1N)c1c(Cl)ccc(F)c1Cl [crizotinib]	–	–	–	26%	–	–	–	–	–
CC(C)(C)c1nc(-c2cccc(NS(=O)(=O)c3c(F)cccc3F)c2F)c(-c2ccnc(N)n2)s1 [dabrafenib]	–	–	–	-0.282%	–	–	–	–	–
C#Cc1cccc(Nc2ncnc3cc(OCCOC)c(OCCOC)cc23)c1 [erlotinib]	–	–	–	–	–	–	–	–	%-inhibition of CTK ([10]; 1 µM): 22%; %-inhibition of KDR ([11]; 1 µM): 74%; %-inhibition, ABL ([8]; 1 µM): 64%
CO[C@H]1C[C@@H]2CC[C@@H](C)[C@@](O)(O2)C(=O)C(=O)N2CCCC[C@H]2C(=O)O[C@H]([C@H](C)C[C@@H]2CC[C@@H](OCCO)[C@H](OC)C2)CC(=O)[C@H](C)/C=C(\C)[C@@H](O)[C@@H](OC)C(=O)[C@H](C)C[C@H](C)/C=C/C=C/C=C/1C [everolimus]	-4.29%	–	-5%	-12%	–	–	–	-6.38%	–
O=S(=O)(c1cccc2cnccc12)N1CCCNCC1 [fasudil]	-1.83%	–	–	2.35%	–	–	–	1.78%	%-inhibition, ABL ([8]; kinase ABL, 1 μM compound): -8%; %-inhibition, ABL(E255K) [9, 15]: -3%
CS(=O)(=O)CCNCc1ccc(-c2ccc3ncnc(Nc4ccc(OCc5cccc(F)c5)c(Cl)c4)c3c2)o1 [lapatinib]	–	–	–	–	–	–	–	–	%-inhibition of CTK ([10]; kinase CTK, compound at 1 μM): -0.699%; %-inhibition, ABL ([8]; kinase ABL, 1 μM compound): 17%; %-inhibition, ABL(E255K) [9, 15]: -4.67%
Cc1cn(-c2cc(NC(=O)c3ccc(C)c(Nc4nccc(-c5cccnc5)n4)c3)cc(C(F)(F)F)c2)cn1 [nilotinib]	–	7.54%	–	–	11%	17%	30%	22%	%-inhibition of CTK ([10]; 1 µM): 7%
Cc1ccc(Nc2nccc(N(C)c3ccc4c(C)n(C)nc4c3)n2)cc1S(N)(=O)=O [pazopanib]	–	5%	43%	–	13%	17%	36%	–	%-inhibition of CTK ([10]; kinase CTK, compound at 1 μM): 4.69%
Cc1ccc(C(=O)Nc2ccc(CN3CCN(C)CC3)c(C(F)(F)F)c2)cc1C#Cc1cnc2cccnn12 [ponatinib]	45%	–	–	98%	–	–	–	–	%-inhibition of EGFR(T790M/L858R) ([3]; 1 µM): 49%; %-inhibition of EGFR ([6]; 1 µM): 97%; %-inhibition of EGFR(L858R) ([7]; 1 µM): 95%
CNC(=O)c1cc(Oc2ccc(NC(=O)Nc3ccc(Cl)c(C(F)(F)F)c3)c(F)c2)ccn1 [regorafenib]	5%	-7.38%	1.68%	–	6%	12%	2.24%	103%	%-inhibition, ABL ([8]; kinase ABL, 1 μM compound): 68%; %-inhibition, ABL(E255K) [9, 15]: 33%
N#CC[C@H](C1CCCC1)n1cc(-c2ncnc3[nH]ccc23)cn1 [ruxolitinib]	–	-8%	-0.336%	50%	-3.22%	-0.278%	-4%	6.52%	%-inhibition, ALK(R1275Q) ([1]; 1 µM): 49%; %-inhibition, ABL ([8]; 1 µM): 5%; %-inhibition, ABL(E255K) ([9]; 1 µM): 0.0579%
CCN(CC)CCNC(=O)c1c(C)[nH]c(/C=C2\C(=O)Nc3ccc(F)cc32)c1C [sunitinib]	–	–	–	–	–	–	–	–	%-inhibition of CTK ([10]; kinase CTK, compound at 1 μM): 28%
CO[C@H]1C[C@@H]2CC[C@@H](C)[C@@](O)(O2)C(=O)C(=O)N2CCCC[C@H]2C(=O)O[C@H]([C@H](C)C[C@@H]2CC[C@@H](OC(=O)C(C)(CO)CO)[C@H](OC)C2)CC(=O)[C@H](C)/C=C(\C)[C@@H](O)[C@@H](OC)C(=O)[C@H](C)C[C@H](C)/C=C/C=C/C=C/1C [temsirolimus]	-1.39%	–	-2.75%	-9%	–	–	–	-7%	–
CC(=O)Nc1cccc(-n2c(=O)n(C3CC3)c(=O)c3c(Nc4ccc(I)cc4F)n(C)c(=O)c(C)c32)c1 [trametinib]	-1.83%	–	-6.51%	-3.3%	–	–	–	-0.549%	–
CCCS(=O)(=O)Nc1ccc(F)c(C(=O)c2c[nH]c3ncc(-c4ccc(Cl)cc4)cc23)c1F [vemurafenib]	3.57%	-5.57%	5%	5.37%	5%	7%	0.505%	13%	%-inhibition, ABL ([8]; kinase ABL, 1 μM compound): 15%; %-inhibition, ABL(E255K) [9, 15]: 2.49%

Reference: PMC3961306, “Comparison of the Cancer Gene Targeting and Biochemical Selectivities of All Targeted Kinase Inhibitors Approved for Clinical Use” (PLoS ONE, 2014)
